Test results: ChEMBL document CHEMBL1201862, “PubChem BioAssay data set” (2004)
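Step 1: Grow cells in 96-well plates. Step 2: Expose to compound for 48 hours at 5 concentrations. Step 3: Interpolate endpoints linearly; if unreached, use highest concentration. Here, GI50 denotes the concentration required for 50% inhibition of growth.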 Active and inactive are the calls of the source. Cut-off read from the data, not from the text of the source: active = GI50 up to about 1.1 µM and inactive = higher.

Columns and labels:
Experiment in all cases: NCI anticancer screen, dose series, 48 h
786-0 = system: 786-0
A498 = system: A498
A549 = system: A549
ACHN = system: ACHN
HCT-15 = system: HCT-15
HOP-62 = system: HOP-62
HOP-92 = system: HOP-92
LOX IMVI = system: LOX IMVI
Malme-3M = system: Malme-3M
NCI-H522 = system: NCI-H522
OVCAR-4 = system: OVCAR-4
SF-295 = system: SF-295
SN12C = system: SN12C
SR = system: SR
SW-620 = system: SW-620
T47D = system: T47D
UACC-257 = system: UACC-257
UACC-62 = system: UACC-62
OVCAR-8 = system: OVCAR-8
SNB-75 = system: SNB-75

| SMILES | GI50 (786-0) | GI50 (A498) | GI50 (A549) | GI50 (ACHN) | GI50 (HCT-15) [µM] | GI50 (HOP-62) | GI50 (HOP-92) | GI50 (LOX IMVI) | GI50 (Malme-3M) | GI50 (NCI-H522) | GI50 (OVCAR-4) | GI50 (SF-295) | GI50 (SN12C) | GI50 (SR) | GI50 (SW-620) | GI50 (T47D) | GI50 (UACC-257) | GI50 (UACC-62) | GI50 (OVCAR-8) | GI50 (SNB-75) |
| --- | --- | --- | --- | --- | --- | --- | --- | --- | --- | --- | --- | --- | --- | --- | --- | --- | --- | --- | --- | --- |
| O=C(/C=C/c1ccc(O)c(O)c1)OCCCc1ccccc1 | 4.39 µM (inactive) | 16.4 µM (inactive) | 14.3 µM (inactive) | 5.32 µM (inactive) | 3.9 | 13.7 µM (inactive) | 12.9 µM (inactive) | 12.3 µM (inactive) | 12.1 µM (inactive) | 0.851 µM (active) | 6.67 µM (inactive) | 16 µM (inactive) | 11.9 µM (inactive) | 5.69 µM (inactive) | 12.6 µM (inactive) | 16.4 µM (inactive) | 34.1 µM (inactive) | 9.84 µM (inactive) |  |  |
| Cc1nn(CN2CCN(C)CC2)c(=S)n1/N=C/c1ccc(-c2ccc(Cl)cc2Cl)o1 | 50.1 µM (inactive) | 19.2 µM (inactive) | > 100 µM (inactive) | > 100 µM (inactive) | 47.2 | > 100 µM (inactive) | > 100 µM (inactive) | 60.7 µM (inactive) | > 100 µM (inactive) | > 100 µM (inactive) | 37.4 µM (inactive) |  | > 100 µM (inactive) | 37 µM (inactive) | 42.7 µM (inactive) | 21.2 µM (inactive) | 66.7 µM (inactive) | 99.5 µM (inactive) | 51.3 µM (inactive) |  |
| CC(=O)/C(=C/n1c(=S)[nH]c2ccccc21)C(=O)Nc1ccccc1C | > 100 µM (inactive) | > 100 µM (inactive) | > 100 µM (inactive) | > 100 µM (inactive) | > 100 | > 100 µM (inactive) | > 100 µM (inactive) | > 100 µM (inactive) |  |  | > 100 µM (inactive) | > 100 µM (inactive) | > 100 µM (inactive) |  | > 100 µM (inactive) | > 100 µM (inactive) | > 100 µM (inactive) |  | > 100 µM (inactive) | > 100 µM (inactive) |
| S=C(Nc1ccc2c(c1)oc1ccccc12)c1cccs1 | 11.3 µM (inactive) | > 100 µM (inactive) | 66.7 µM (inactive) | > 100 µM (inactive) | > 100 | 25.4 µM (inactive) | 53.5 µM (inactive) | 7.73 µM (inactive) |  | 20.8 µM (inactive) | 30.6 µM (inactive) | 16.6 µM (inactive) | > 100 µM (inactive) | 4.25 µM (inactive) | > 100 µM (inactive) | 3.37 µM (inactive) | > 100 µM (inactive) | 82.8 µM (inactive) | 18.7 µM (inactive) |  |
| CC(C)(O)C1COC2=C1C(=O)c1ccccc1C2=O (centres undefined) | 41.3 µM (inactive) | > 100 µM (inactive) | > 100 µM (inactive) | 48.2 µM (inactive) | 27.5 |  | 27.5 µM (inactive) | 19.2 µM (inactive) |  | 47.1 µM (inactive) | 71 µM (inactive) | 42.5 µM (inactive) | 27.8 µM (inactive) |  | 23 µM (inactive) | 33.4 µM (inactive) | 71.9 µM (inactive) | 22.9 µM (inactive) | 22.5 µM (inactive) | 19.8 µM (inactive) |
| Cc1nc2sc(CCl)nn2c(=O)c1Cl | 10.6 µM (inactive) |  | 15.1 µM (inactive) | 15.7 µM (inactive) | 11.5 | 17.6 µM (inactive) | 5.7 µM (inactive) | 1.92 µM (inactive) | 11.2 µM (inactive) | 3.15 µM (inactive) | 15.7 µM (inactive) | 16.6 µM (inactive) | 12.3 µM (inactive) | 4.61 µM (inactive) | 10.4 µM (inactive) | 13.1 µM (inactive) | 12.3 µM (inactive) | 14 µM (inactive) | 14 µM (inactive) | 10.9 µM (inactive) |
| CCOP(=O)(OCC)[C@]12C[C@@H](C)C=C[C@H]1COC2=O | > 100 µM (inactive) | > 100 µM (inactive) | > 100 µM (inactive) | > 100 µM (inactive) |  | > 100 µM (inactive) |  | > 100 µM (inactive) | > 100 µM (inactive) | > 100 µM (inactive) | > 100 µM (inactive) | > 100 µM (inactive) | > 100 µM (inactive) | > 100 µM (inactive) | > 100 µM (inactive) | > 100 µM (inactive) | > 100 µM (inactive) | > 100 µM (inactive) | > 100 µM (inactive) | > 100 µM (inactive) |
| Cc1nc(C(N)=S)sc1C(=O)CC(=O)C(=O)Nc1ccc(Br)cc1 | > 100 µM (inactive) | > 100 µM (inactive) | > 100 µM (inactive) | > 100 µM (inactive) | > 100 | > 100 µM (inactive) | > 100 µM (inactive) | > 100 µM (inactive) | > 100 µM (inactive) | 66.4 µM (inactive) | > 100 µM (inactive) | > 100 µM (inactive) | > 100 µM (inactive) |  | > 100 µM (inactive) | > 100 µM (inactive) | > 100 µM (inactive) | > 100 µM (inactive) | > 100 µM (inactive) | > 100 µM (inactive) |
| CCN(CC)C(=S)N/N=C/c1cc([N+](=O)[O-])ccc1O | 2.99 µM (inactive) | 2.25 µM (inactive) | 12.8 µM (inactive) | 3.36 µM (inactive) | 3.62 | 7.4 µM (inactive) |  | 3.01 µM (inactive) | 6.68 µM (inactive) | 5.07 µM (inactive) | 3.65 µM (inactive) | 4.56 µM (inactive) | 4.88 µM (inactive) | 1.74 µM (inactive) | 6.35 µM (inactive) | 5.13 µM (inactive) | 8.53 µM (inactive) | 3.27 µM (inactive) | 3.56 µM (inactive) | 9.27 µM (inactive) |
| COc1ccc(C#CC(=O)O)c(OC)c1 | > 100 µM (inactive) | > 100 µM (inactive) | > 100 µM (inactive) | > 100 µM (inactive) | > 100 | > 100 µM (inactive) | > 100 µM (inactive) | > 100 µM (inactive) | > 100 µM (inactive) |  | > 100 µM (inactive) | > 100 µM (inactive) | > 100 µM (inactive) | > 100 µM (inactive) | > 100 µM (inactive) | > 100 µM (inactive) | > 100 µM (inactive) | > 100 µM (inactive) | > 100 µM (inactive) |  |
| Clc1ccc(-c2cn3c(nc4ccccc43)c(/C=C/c3cccs3)n2)cc1 | > 100 µM (inactive) | > 100 µM (inactive) | > 100 µM (inactive) | > 100 µM (inactive) | > 100 | > 100 µM (inactive) | > 100 µM (inactive) | > 100 µM (inactive) | > 100 µM (inactive) |  | 34.7 µM (inactive) |  | > 100 µM (inactive) | 5.09 µM (inactive) | > 100 µM (inactive) | 27.3 µM (inactive) | 52.6 µM (inactive) | > 100 µM (inactive) |  | > 100 µM (inactive) |
| CC(Br)CN1CCOCC1 (centres undefined) | > 100 µM (inactive) | > 100 µM (inactive) | > 100 µM (inactive) | > 100 µM (inactive) | > 100 | > 100 µM (inactive) | > 100 µM (inactive) | > 100 µM (inactive) | > 100 µM (inactive) | > 100 µM (inactive) |  |  | > 100 µM (inactive) | 13.9 µM (inactive) | > 100 µM (inactive) | > 100 µM (inactive) | > 100 µM (inactive) | > 100 µM (inactive) | > 100 µM (inactive) |  |
| CCC(C)C1=C(O)[N+]2([O-])Oc3ccc(-c4c(O)c(O)c(-c5ccc(O)cc5)c(OC(C)=O)c4OC(C)=O)cc3OC2(C(C)CC)C(=O)N1O (centres undefined) | 13.7 µM (inactive) | > 50 µM (inactive) | > 50 µM (inactive) | > 50 µM (inactive) | > 50 |  |  | 17.6 µM (inactive) | > 50 µM (inactive) | 23.5 µM (inactive) | > 50 µM (inactive) | > 50 µM (inactive) | > 50 µM (inactive) | > 50 µM (inactive) | > 50 µM (inactive) | > 50 µM (inactive) | > 50 µM (inactive) | > 50 µM (inactive) | > 50 µM (inactive) | > 50 µM (inactive) |
| Cc1cc2nc(N3C(=O)/C(=C/Cc4ccco4)N=C3c3ccccc3)sc2cc1C | 27.2 µM (inactive) |  | 36.9 µM (inactive) | 26.7 µM (inactive) | 30.5 | 54.7 µM (inactive) | 10.2 µM (inactive) | 25.9 µM (inactive) |  |  | 29.5 µM (inactive) | 43.8 µM (inactive) | 25.6 µM (inactive) | 38.4 µM (inactive) | 31.3 µM (inactive) | 31 µM (inactive) | 26 µM (inactive) | 23.3 µM (inactive) | 31.6 µM (inactive) | 17.7 µM (inactive) |
| Cn1c(=O)c2c(nc3sc4nc5ccccc5nc4n32)n(C)c1=O | > 100 µM (inactive) | > 100 µM (inactive) | > 100 µM (inactive) | > 100 µM (inactive) | > 100 |  | > 100 µM (inactive) | 92.3 µM (inactive) | > 100 µM (inactive) |  |  | 49.5 µM (inactive) | 85.9 µM (inactive) | > 100 µM (inactive) |  | > 100 µM (inactive) | > 100 µM (inactive) | > 100 µM (inactive) | > 100 µM (inactive) | 34.8 µM (inactive) |
| CC(=O)NCCc1c[nH]c2ccc(Cl)cc12 | > 100 µM (inactive) |  | > 100 µM (inactive) | > 100 µM (inactive) | > 100 | > 100 µM (inactive) | 79.8 µM (inactive) | > 100 µM (inactive) | > 100 µM (inactive) | 91 µM (inactive) | > 100 µM (inactive) | > 100 µM (inactive) | > 100 µM (inactive) | > 100 µM (inactive) | > 100 µM (inactive) | > 100 µM (inactive) | > 100 µM (inactive) | > 100 µM (inactive) | > 100 µM (inactive) | 33.4 µM (inactive) |
